# From US10620222B2, “Electrified compositions for determining the risk of developing adolescent idiopathic scoliosis through the use of GI protein receptor” (CHU Sainte-Justine, priority 2008, dated 2020)
# Several values for one entry are separate records, joined by “and”; a condition that tells them apart may be missing. Identical values can stand only once.
# What was measured:
# [1] = system: receptors coupled to Gi proteins expressed on osteoblasts; experiment: Cellular Dielectric Spectroscopy (CDS, CELLKEY) response to Gi-coupled receptor ligands in osteoblasts from control and AIS subjects; format: cell-based, human; details: for dZiec value: n1, n2 of Exper. 1-3
# Text: Bone specimens were obtained intraoperatively from vertebras (varying from T3 to L4 according to the surgical procedure performed), while with trauma cases used as non-scoliotic controls bone specimens were obtained from other anatomical sites (tibia or femur, and in one case from an iliac crest biopsy). Osteoblasts and myoblasts isolated as previously described (Moreau A, Wang D S, Forget S et al. Melatonin Signaling Dysfunction in Adolescent Idiopathic Scoliosis. Spine 2004; 29:1772-81; Azeddine et al., 2007 Molecular determinants of melatonin signaling dysfunction in adolescent idiopathic scoliosis. Clin Orthop Relat Res. 2007, 462:45-52), were cultured at 37° C./5% CO2 in MEM supplemented with 10% fetal bovine serum (FBS) and 100 μg/mL streptomycin. Prior to the experiment, cells were seeded into the CELLKEY™ label-free cellular analysis system standard 96-well plates at a density of 5×10^4/well and grown for 24 h and incubated in standard conditions (37° C./5% CO2). In some plates, Pertussis toxin (100 ng/mL, Sigma, Oakville, ON, Canada) treatment was performed 16 h before the CDS assay. Following overnight incubation, plates were placed onto the CELLKEY™ label-free cellular analysis system and growth medium was exchanged to assay buffer (Hanks, Balanced Salt Solution containing 20 mM HEPES and 0.1% BSA) before starting the experiment. Cells were then allowed to equilibrate at room temperature for 30 min. Pre-addition measurements were made for 5 min to obtain a baseline reading. […] The quick update rate (2 s.) of the CELLKEY™ label-free cellular analysis system allows detection of these immediate changes in impedance. Impedance measurements were collected for 10 min to 15 min at 28° C. after ligand addition to monitor cellular responses to ligand interaction and to generate CELLKEY™ label-free cellular analysis system response profiles that are characteristic of the signaling mechanisms used.
# (§1) The response induced by the various ligands to their receptors was measured by cellular dielectric spectroscopy (CDS) using the CELLKEY™ label-free cellular analysis technology. (MDS Sciex, San Francisco, Calif., USA). The CELLKEY™ label-free cellular analysis system integrates a proprietary impedance measurement system, custom 96-well microliter plate, onboard 96-well fluidics, and environment control and custom acquisition and analysis software in a full solution package (MDS Sciex) that is compatible with commercially available robotic platforms. Small voltage at 24 frequencies, from 1 KHz to 10 MHz, is applied to a monolayer of cells settled in a 96-well microplate containing electrodes at the bottom, and the resultant current is measured at an update rate of 2 s. […] Onboard fluid additions and exchanges are handled by 96-well head fluid delivery device with a range of 5-500 μL. In addition to the cell plate location, the CELLKEY™ label-free cellular analysis system includes two additional stations for 96- or 384-well compound plates. All aspects of assay set up, execution, and data acquisition and analysis are controlled by CELLKEY™ label-free cellular analysis software.
# The minimal (min) and maximal (max) values represent the mean of three independent measurements performed in duplicate (six values in total) for a given patient/control subject. […] Duplicates (n1 and n2) of three independent experiments are presented.
# [2] = system: melatonin signaling in PBMCs; experiment: CDS response to iodomelatonin in PBMCs from control and IS subjects; format: cell-based, human
# Text: Blood samples were obtained from patients and control groups and collected in blood collection tubes containing EDTA and then centrifuged on a Ficoll-Plaque (GE Healthcare, Mississauga, ON, Canada) solution to obtain PBMCs (containing principally lymphocytes). PBMC fractions were preserved frozen in FBS with 10% DMSO and kept in liquid nitrogen until thawed and assayed. PBMCs were harvested from stock tissue culture flask and washed three times with assay buffer. Cells were isolated from the heparinized peripheral by ficoll-Hypaque density gradient centrifugation, and cultured in RPMI 1640 medium supplemented with 10% FBS, 100 μg/mL streptomycin and 1% of phytohemagglutinin. Following 48 h of incubation at 37° C./CO2 cells were washed three times with assay buffer and seeded into the CELLKEY™ label-free cellular analysis system small 96-well plates. Typically, an average of 1×10^5 cells to 1.5×10^5 were added to each well and allowed to settle for 30 min at room temperature. […] After the cells settled, the cell plate was placed on the instrument and experiments were initiated in the manner described below after the acquisition of 5 min of baseline measurements. All experiments were conducted at 28° C.
# as §1
# PBMCs were isolated from control subjects, IS subjects as described in Example 2 above.
# [3] = system: Gi protein-mediated pathway in MG63 osteoblast cell line; format: cell-based; details: 100 ng/mL PTX 16 h, stimulation with 10 μM ligand, 37° C., 5 min
# Method: The ability of CDS to detect the relative part of the Gi protein-mediated pathway in melatonin signaling was determined by blocking this pathway with pertussis toxin (PTX). This toxin ADP-ribosylates the a subunit of the heterotrimeric Gi protein and thereby prevents its activity. The MG63 osteoblast cell line was serum-starved for 16 h in the absence or presence of 100 ng/mL of PTX to inhibit the αi subunit of Gi protein. […] Cellular responses were measured with CELLKEY™ label-free cellular analysis system as described in the Material and Methods section.
# [4] = osteoblasts of control subjects, 300 μM ligand, from FIGS. 11A-11F
# [5] = PBMCs of control subjects, 300 μM, from FIG. 12A
smiles,measurement,setting,value
"COc1ccc2[nH]c(I)c(CCNC(C)=O)c2c1 [Iodomelatonin, 2-lodomelatonin]","CDS response, dependence on concentration","[1]; osteoblasts from both control and IS patients, FIGS. 4A-4C",concentration-dependent manner
same,dZiec value,"[1]; osteoblasts of AIS#1020 (Group 3), 300 μM ligand",69.57 and 66.57 and 85.25 and 97.25 and 83.71 and 74.11
same,dZiec value,"[1]; osteoblasts of AIS#1198 (Group 3 in Table II), 300 μM ligand",61.05 and 65.29 and 70.29 and 60.97 and 57.37
same,dZiec value,"[1]; osteoblasts of AIS#1385 (Group 2), 300 μM ligand",66.51 and 67.51 and 79.93 and 81.93 and 79.02 and 69.42
same,dZiec value,"[1]; osteoblasts of AIS#1468 (Group 3), 300 μM ligand",91.38 and 88.38 and 101.69 and 113.69 and 102.83 and 93.23
same,dZiec value,"[1]; osteoblasts of AIS#1474 (Group 1), 300 μM ligand",33.02 and 32.02 and 38.33 and 32.33 and 39.97 and 36.37
same,dZiec value,"[1]; osteoblasts of AIS#1488 (Group 1), 300 μM ligand",25.43 and 27.43 and 30.31 and 27.31 and 19.17 and 19.57
same,dZiec value,"[1]; osteoblasts of AIS#1513 (Group 3), 300 μM ligand",83.92 and 80.92 and 94.08 and 106.08 and 95.30 and 85.70
same,dZiec value,"[1]; osteoblasts of AIS#1550 (Group 2), 300 μM ligand",55.99 and 48.99 and 60.90 and 62.90 and 62.74 and 59.14
same,dZiec value,"[1]; osteoblasts of control CTR#60, 300 μM ligand",142.55/— and 139.55/— and 149.20/— and 161.20/— and 152.18/— and 142.58/—
same,dZiec value,"[1]; osteoblasts of control CTR#61, 300 μM ligand",130.88/— and 127.88/— and 138.31/— and 150.31/— and 140.90/— and 131.30/—
same,dZiec value,"[1]; osteoblasts of control CTR#69, 300 μM ligand",150.99/— and 147.99/— and 161.10/— and 173.10/— and 162.34/— and 152.74/—
same,"Absolute dZiec, control value of max diff. (maximal control value)",[1]; [4],159
same,"Absolute dZiec, control value of min diff. (minimal control value)",[1]; [4],120
same,"Absolute dZiec, Group 1, max diff. (group value)","[1]; osteoblasts, AIS Group 1 value of max diff., 300 μM ligand, from FIGS. 11A-11F",15
same,"Absolute dZiec, Group 1, min diff. (group value)","[1]; osteoblasts, AIS Group 1 value of min diff., 300 μM ligand, from FIGS. 11A-11F",35
same,"Absolute dZiec, Group 2, max diff. (group value)","[1]; osteoblasts, AIS Group 2 value of max diff., 300 μM ligand, from FIGS. 11A-11F",57
same,"Absolute dZiec, Group 2, min diff. (group value)","[1]; osteoblasts, AIS Group 2 value of min diff., 300 μM ligand, from FIGS. 11A-11F",84
same,"Absolute dZiec, Group 3, max diff. (group value)","[1]; osteoblasts, AIS Group 3 value of max diff., 300 μM ligand, from FIGS. 11A-11F",90
same,"Absolute dZiec, Group 3, min diff. (group value)","[1]; osteoblasts, AIS Group 3 value of min diff., 300 μM ligand, from FIGS. 11A-11F",101
same,magnitude of CDS response in IS osteoblasts vs control,"[1]; osteoblasts, FIGS. 4A-4C",significantly lower
same,maximal magnitude of CDS response,"[2]; PBMCs from IS patients, 300 μM",110 ohms
same,minimum magnitude of CDS response,"[2]; PBMCs from IS patients, 300 μM",16 ohms
same,minimal magnitude of CDS response,"[2]; PBMCs from healthy volunteers, 300 μM",124 ohms
same,melatonin signaling response (CDS),"[2]; PBMCs from normal/healthy subjects, 300 μM",greater than 120 ohms
same,"Absolute dZiec, control value of max diff. (maximal control value)",[2]; [5],225
same,"Absolute dZiec, control value of min diff. (minimal control value)",[2]; [5],124
same,responsiveness of PBMCs from patients with IS compared to healthy volunteers,"[2]; PBMCs, FIG. 12A, melatonin data not shown",less responsive
same,"Absolute dZiec, Group 1, max diff. (group value)","[2]; PBMCs, Group 1 value of max diff., 300 μM, from FIG. 12A",16
same,"Absolute dZiec, Group 1, min diff. (group value)","[2]; PBMCs, Group 1 value of min diff., 300 μM, from FIG. 12A",36
same,"Absolute dZiec, Group 2, max diff. (group value)","[2]; PBMCs, Group 2 value of max diff., 300 μM, from FIG. 12A",49
same,"Absolute dZiec, Group 2, min diff. (group value)","[2]; PBMCs, Group 2 value of min diff., 300 μM, from FIG. 12A",75
same,"Absolute dZiec, Group 3, max diff. (group value)","[2]; PBMCs, Group 3 value of max diff., 300 μM, from FIG. 12A",86
same,"Absolute dZiec, Group 3, min diff. (group value)","[2]; PBMCs, Group 3 value of min diff., 300 μM, from FIG. 12A",110
same,mean of CDS response,"[2]; PBMCs, IS group 1, 300 μM",27.86±4.18 ohms
same,mean of CDS response,"[2]; PBMCs, IS group 2, 300 μM",65.71±3.42 ohms
same,mean of CDS response,"[2]; PBMCs, IS group 3, 300 μM",97.94±1.36 ohms
same,mean of CDS response,"[2]; PBMCs, control group, 300 μM",155.17±3.91 ohms
same,inhibition extent of the CDS response by PTX treatment,[3],~90%
